Values quoted from earlier work in patent US6495562B1, “Naphthamidine urokinase inhibitors” (Abbott Laboratories, priority 2000, dated 2002).

How the values were obtained:
tumor metastasis = conditions: Anticancer Res. 1988, 8, 1373-1376
angiogenesis = conditions: J. Cell Biol. 1991, 115[3 Pt 2], 402a

N=C(N)NC(=O)c1nc(Cl)c(N)nc1N [Amiloride]
inhibition of tumor metastasis in vivo (tumor metastasis): inhibit
inhibition of angiogenesis in vitro (angiogenesis): inhibit
